Data reported in US11154527B2, “Dermatophytosis prophylaxis and treatment” (The Children's Mercy Hospital, priority 2015, dated 2021).
pIC50: −log10 of the molar value. Structures can show the parent of a compound that is named as a salt. Where two headings read alike, the source gives them in different places.

Key:
[1] = tested on: reference strain of T. tonsurans; assay: MIC / dose-response testing against reference strain of T. tonsurans; format: cell-based, Trichophyton tonsurans
Method: (§1) Materials Used: • 10 mm×100 mm petri plate of dermatophyte culture grown to confluency (>14 days) on Sabouraud's dextrose agar (Becton Dickinson, Sparks Md.) containing 50 mg/L chloramphenicol and 500 mg/L cycloheximide (Sigma Chemical Company, St. Louis Mo.) (see appendix A for recipe). • 1× sterile Phosphate Buffered Saline (Sigma Chemical Company, St. Louis Mo.). • (2) 15 mL sterile disposable conical tubes (Thermo Fisher Scientific, Rochester N.Y.). • Disposable sterile inoculating loop (Fisher Scientific, Hanover Park Ill.). • Disposable sterile transfer pipette (Fisher Scientific, Hanover Park Ill.). • Sterilized 2″×2″ 4 ply gauze (Medline Industries, Mundelein Ill.) • 30 mL sterile disposable syringe (Becton Dickinson, Franklin Lakes N.J.). • Hemocytometer (Fisher Scientific, Hanover Park Ill.).
(§2) Spore Prep Procedure (performed aseptically in a biosafety cabinet): • The fungal plate was flooded with 10 mL of sterile 1×PBS and with a sterile disposable inoculating loop, then the surface was gently scraped until all the fungal material (hyphae and spores) was liberated into the PBS. • Using a disposable transfer pipette, the entire volume of PBS/spores was transferred from the plate into a sterile 15 mL conical tube. • Next, 2 mL of sterile 1×PBS was added to the plate and swirled to rinse. • Using the transfer pipette, the remaining volume of PBS/spores was transferred from the plate to the 15 mL conical. • Then, the 15 mL tube was capped and vortexed at max speed for 10-15 seconds, set aside. • The plunger from the 30 mL syringe was then removed and the barrel was packed with 1 square of sterile 2″×2″ gauze. • Using the plunger, the gauze was firmly packed at the bottom of the barrel then the plunger was removed. • The syringe barrel was placed into a new sterile 15 mL conical tube and the entire contents of the 15 mL PBS/spore suspension was poured directly onto the gauze in the syringe barrel. • The plunger was then gently inserted into the barrel and depressed all the way down to filter the spore/hyphal suspension through the gauze. • The plunger was gently removed and additional 2 mL of sterile PBS was added back to the original 15 mL conical tube.
(§3) MIC Testing (96 well format):
(§4) To Make the Spore Suspension:
(§5) • A 2 mM stock of the compound to be tested was made in 100% DMSO in a sterile 1.5 mL microfuge tube. • Vortexed the tube vigorously for 1 minute, then protected the compound from light and rocked or shook for 1 hour at room temperature to fully dissolve. • NOTE: Because the 2× culture media was diluted with an equal volume of spore/PBS solution to achieve a 1× final media concentration, the high standard for the range of compound to be tested was made at 2× the highest concentration desired and contain a final DMSO concentration of 0.5%.
(§6) To generate the range of compound to be tested, the following dilution protocol was performed:
(§7) (a) The high standard was made:
(§8) The result was 1000 μL of a 20 μM stock in 2× Culture Medium with a final [DMSO] of 1%.
(§9) (b) The drug dilution range to be tested was made by serially diluting the high standard 1:1 with 2× Culture Medium/1% DMSO.
(§10) Aseptically added 100 μL of the drug/media manually to each well according to the plate map in FIG. 2, as follows: […]

[2] = tested on: 5 genetically distinct strain of T. tonsurans; assay: MIC testing against 5 genetically distinct strains of T. tonsurans; format: cell-based; settings: Trichophyton tonsurans
Method: as §1, §2, §3, §4, §5, §6, §7, §8, §9, §10

T. rubrum = assay: MIC testing against different Trichophyton species: T. rubrum; format: cell-based
Method: (§11) Materials Used: • 10 mm×100 mm petri plate of dermatophyte culture grown to confluency (>14 days) on Sabouraud's dextrose agar (Becton Dickinson, Sparks Md.) containing 50 mg/L chloramphenicol and 500 mg/L cycloheximide (Sigma Chemical Company, St. Louis Mo.) (see appendix A for recipe). • 1× sterile Phosphate Buffered Saline (Sigma Chemical Company, St. Louis Mo.). • (2) 15 mL sterile disposable conical tubes (Thermo Fisher Scientific, Rochester N.Y.). • Disposable sterile inoculating loop (Fisher Scientific, Hanover Park Ill.). • Disposable sterile transfer pipette (Fisher Scientific, Hanover Park Ill.). • Sterilized 2″×2″ 4 ply gauze (Medline Industries, Mundelein Ill.) • 30 mL sterile disposable syringe (Becton Dickinson, Franklin Lakes N.J.). • Hemocytometer (Fisher Scientific, Hanover Park Ill.). […]

T. equinum = assay: MIC testing against different Trichophyton species: T. equinum; format: cell-based
Method: as §11

T. mentagrophytes = assay: MIC testing against different Trichophyton species: T. mentagrophytes; format: cell-based
Method: as §11

[3] = tested on: reference strain of T. tonsurans; assay: Preliminary screening of 7,676 compounds (384 well format), growth read at 600 nm; format: cell-based, Trichophyton tonsurans; settings: preliminary screen
Method: as §1, §2
Screening (384 well format):
Note: final concentration of DMSO was not to exceed 0.5%.
NOTE: there was residual spore suspension, the calculations above allowed for overage to ensure enough suspension is made for each plate. • Using the peristaltic pump, the automated dispenser was programmed to deliver 35 μL of 2×SabDEX broth to each well in the 384 well plate. The pump was then purged of growth media and re-primed with the spore suspension. The dispenser was then programmed to deliver 35 μL of spore suspension to each test well (to include+growth controls). • Negative growth controls were made by manually pipetting 35 μL of sterile 1×PBS from a sterile multi-channel boat into each (−) control well using a 100 μL pipette. • Each plate was given a numerical designation, dated, sealed with an EDGE® seal and placed in a 32° C. incubator for 48 hours. • After incubation, the seal was carefully removed and the plate read at 600 nm using a single point read on a microplate reader. • If more time was required, the plate was re-sealed and incubated an additional 24 hours.

[4] = Trichophyton tonsurans, range, reference strain of T. tonsurans (Table 2), read-out: IC50 [range]
[5] = Trichophyton tonsurans, reference strain of T. tonsurans (Table 2), read-out: IC50
[6] = Trichophyton tonsurans, dose response (DR plate), reference strain of T. tonsurans, read-out: rMIC50

Row | SMILES | Prelim H ratio [3] | Prelim L ratio [3] | pIC50 [1, 6] | other results
1 | CCC(C)(C)C(=O)O[C@H]1C[C@@H](C)C=C2C=C[C@H](C)[C@H](CC[C@@H](O)C[C@@H](O)CC(=O)O)[C@H]21 [simvistatin acid] | – | – | – | pIC50 [1, 4]: 7.21 to 7.62; pIC50 [1, 5]: 7.52; pIC50 ([2]; T. tonsurans strain 0924-0254): 7.54; pIC50 ([2]; T. tonsurans strain 0924-1093): 7.30; pIC50 ([2]; T. tonsurans strain 0924-1456): 7.28; pIC50 ([2]; T. tonsurans strain 0924-1669): 7.28; pIC50 ([2]; T. tonsurans strain 1119-0616): 7.21; pIC50 (T. rubrum): 6.52; pIC50 (T. equinum): 7.07; pIC50 (T. mentagrophytes): 7.15
2 | COCc1c(C(C)C)nc(C(C)C)c(/C=C/[C@@H](O)C[C@@H](O)CC(=O)O)c1-c1ccc(F)cc1 [Cerivastatin] | 1.06 | 2.28 | > 8.00 | pIC50 [1, 4]: 7.24 to 8.52; pIC50 [1, 5]: 8.00; pIC50 ([2]; T. tonsurans strain 0924-0254): 8.52; pIC50 ([2]; T. tonsurans strain 0924-1093): 8.30; pIC50 ([2]; T. tonsurans strain 0924-1456): 7.82; pIC50 ([2]; T. tonsurans strain 0924-1669): 8.30; pIC50 ([2]; T. tonsurans strain 1119-0616): 8.00; pIC50 (T. rubrum): 7.17; pIC50 (T. equinum): 7.68; pIC50 (T. mentagrophytes): 7.72
3 | O=C(O)C[C@H](O)C[C@H](O)/C=C/c1c(C2CC2)nc2ccccc2c1-c1ccc(F)cc1 [pitavastatin] | – | – | – | pIC50 [1, 4]: 7.49 to 8.52; pIC50 [1, 5]: 7.52; pIC50 ([2]; T. tonsurans strain 0924-0254): 8.52; pIC50 ([2]; T. tonsurans strain 0924-1093): 7.74; pIC50 ([2]; T. tonsurans strain 0924-1456): 7.62; pIC50 ([2]; T. tonsurans strain 0924-1669): 7.60; pIC50 ([2]; T. tonsurans strain 1119-0616): 7.57; pIC50 (T. rubrum): 6.83; pIC50 (T. equinum): 7.27; pIC50 (T. mentagrophytes): 7.46
4 | Oc1c(Cl)cc(Cl)c2cccnc12 [Chloroxine] | 1.01 | 1.99 | 6.66 | –
5 | CCCCCCCCCCCCCCCC[N+](C)(C)CCN(Cc1ccc(OC)cc1)c1ncccn1 [Thonzonium bromide] | 1.06 | 2.11 | 6.20 | –
6 | CC(C)(C)C(=O)C(Oc1ccc(Cl)cc1)n1ccnc1 (centres unmarked) [Climbazole] | 0.80 | 1.51 | 6.20 | –
7 | CCCCC(CC)CNC(=N)NC(=N)NCCCCCCNC(=N)NC(=N)NCC(CC)CCCC (centres unmarked) [Alexidine dihydrochloride] | 1.04 | 2.07 | 6.36 | –
8 | O=C1C(O)=C([C@H]2CC[C@H](c3ccc(Cl)cc3)CC2)C(=O)c2ccccc21 [Atovaquone] | 0.44 | 0.95 | 7.48 | –
9 | O=C([O-])C[C@H](O)C[C@H](O)/C=C/c1c(C2CC2)nc2ccccc2c1-c1ccc(F)cc1.O=C([O-])C[C@H](O)C[C@H](O)/C=C/c1c(C2CC2)nc2ccccc2c1-c1ccc(F)cc1.[Ca+2] [Itavastatin (Pitavastatin) Ca] | 1.04 | 2.00 | – | upper asymptote ([1]; dose response (DR plate), reference strain of T. tonsurans): 97; pIC50 ([1]; dose response (DR plate), reference strain of T. tonsurans, read-out: rMIC50): 7.74
10 | CC[C@H](C)C(=O)O[C@H]1C[C@@H](C)C=C2C=C[C@H](C)[C@H](CC[C@@H]3C[C@@H](O)CC(=O)O3)[C@H]21 [Lovastatin] | 0.75 | 1.39 | 6.15 | pIC50 [1, 5]: 6.15
11 | COc1cc(/C=C/c2ccc(O)cc2)cc(OC)c1 [Pterostilbene] | 0.71 | 1.42 | 6.08 | –
12 | CC(=O)N1CCN(c2ccc(OCC3COC(Cn4ccnc4)(c4ccc(Cl)cc4Cl)O3)cc2)CC1 (centres unmarked) [Ketoconazole] | 1.00 | 1.85 | 7.72 | –
13 | Clc1cc(Cl)c(OCC#CI)cc1Cl [Haloprogin] | 1.04 | 1.91 | 6.46 | –
14 | c1ccc(-c2ccc(C(c3ccccc3)n3ccnc3)cc2)cc1 (centres unmarked) [Bifonazole] | 1.06 | 2.12 | 7.42 | –
